Assay results as given in patent US10294248B2, “Beta-lactamase inhibitors” (VenatoRx Pharmaceuticals, Inc., priority 2013, dated 2019).

Legend:
[1] = test system: K. pneumoniae 156319 expressing KPC-3; assay: Broth microdilution MIC, K. pneumoniae 156319 KPC-3; format: cell-based; settings: fixed 4 μg/mL meropenem; CAMHB, 16-20 hours at 37° C.
In short: (§1)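 Following CLSI broth microdilution, β-lactamase-producing strains grown 3–5 h were exposed in CAMHB to 2-fold dilutions of test compound (32 to 0.25 μg/mL final). A static 4 μg/mL β-lactam overlay was added. After 16–20 h at 37° C, MIC was scored by eye.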

[2] = molecular target: T1, VIM-2 metallo-β-lactamase (Class B) (Pseudomonas aeruginosa, UniProt Q9K2N0); assay: β-Lactamase inhibition, VIM-2; format: biochemical; settings: nitrocefin 100 μM, 486 nm; 15 min preincubation at 37° C., PBS pH 7.4
T1 construct: made in house; host or cells: E. coli BL21(DE3)
In short: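 Nitrocefin hydrolysis (100 μM final, A486 read for 10 min) by purified VIM-2 after a 15-min, 37° C enzyme–inhibitor preincubation. IC50 is the concentration halving initial hydrolysis rate, derived from percent inhibition against no-inhibitor wells.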

[3] = test system: E. coli ESBL4 expressing CTX-M-15; assay: Broth microdilution MIC, E. coli ESBL4 CTX-M-15; format: cell-based; settings: fixed 4 μg/mL ceftazidime; CAMHB, 16-20 hours at 37° C.
In short: as §1

[4] = test system: S. aureus MSSA-7 producing penicillinase PC-1; assay: Broth microdilution MIC, S. aureus MSSA-7 PC-1; format: cell-based; settings: fixed 4 μg/mL piperacillin; CAMHB, 16-20 hours at 37° C.
In short: as §1

[5] = test system: P. aeruginosa Ps296 expressing VIM-2; assay: Broth microdilution MIC, P. aeruginosa Ps296 VIM-2; format: cell-based; settings: fixed 4 μg/mL meropenem; CAMHB, 16-20 hours at 37° C.
In short: as §1

[6] = test system: K. pneumoniae A-1797 expressing KPC-2 and VIM-4; assay: Broth microdilution MIC, K. pneumoniae A-1797 KPC-2/VIM-4; format: cell-based; settings: fixed 4 μg/mL meropenem; CAMHB, 16-20 hours at 37° C.
In short: as §1

[7] = molecular target: T2, p99 AmpC β-lactamase (Class C) (Enterobacter cloacae, UniProt P05364); assay: β-Lactamase inhibition, p99 AmpC; format: biochemical
T2 construct: made in house; host or cells: E. coli BL21(DE3)
T2 sequence (P05364 21-381): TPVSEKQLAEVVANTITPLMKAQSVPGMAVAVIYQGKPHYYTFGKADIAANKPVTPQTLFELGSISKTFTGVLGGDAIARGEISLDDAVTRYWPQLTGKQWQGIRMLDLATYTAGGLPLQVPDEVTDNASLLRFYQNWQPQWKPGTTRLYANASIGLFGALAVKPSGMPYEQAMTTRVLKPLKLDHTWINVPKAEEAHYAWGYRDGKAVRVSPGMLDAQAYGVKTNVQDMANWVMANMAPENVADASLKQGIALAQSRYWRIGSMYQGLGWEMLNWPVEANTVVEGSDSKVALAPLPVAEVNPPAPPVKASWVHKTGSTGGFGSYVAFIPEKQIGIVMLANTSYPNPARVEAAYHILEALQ

[8] = molecular target: T3, OXA-1 β-lactamase (Class D oxacillinase) (Escherichia coli, UniProt P13661); assay: β-Lactamase inhibition, OXA-1; format: biochemical; settings: nitrocefin 100 μM, 486 nm; 15 min preincubation at 37° C., PBS pH 7.4
T3 construct: made in house; host or cells: E. coli BL21(DE3)
T3 sequence (P13661 26-276): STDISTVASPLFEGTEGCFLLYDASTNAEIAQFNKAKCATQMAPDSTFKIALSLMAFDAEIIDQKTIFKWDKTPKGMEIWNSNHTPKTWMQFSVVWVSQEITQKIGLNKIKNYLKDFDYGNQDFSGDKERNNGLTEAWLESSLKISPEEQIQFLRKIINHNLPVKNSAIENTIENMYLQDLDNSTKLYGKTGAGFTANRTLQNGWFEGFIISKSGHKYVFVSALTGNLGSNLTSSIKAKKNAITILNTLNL
In short: (§2)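 Compounds are mixed with purified, untagged recombinant β-lactamase and held 15 min at 37 °C. Substrate is then added: nitrocefin (100 μM final) for OXA-1, imipenem for KPC-2, cefotaxime for SHV-5. Absorbance is followed immediately, and percent inhibition per concentration gives the IC50.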

[9] = molecular target: T4, KPC-2 β-lactamase (Class A carbapenemase) (Klebsiella pneumoniae, UniProt Q9F663); assay: β-Lactamase inhibition, KPC-2; format: biochemical; settings: imipenem substrate, 300 nm; 15 min preincubation at 37° C., PBS pH 7.4
T4 construct: made in house; host or cells: E. coli BL21(DE3)
T4 sequence (Q9F663 25-293, looked up): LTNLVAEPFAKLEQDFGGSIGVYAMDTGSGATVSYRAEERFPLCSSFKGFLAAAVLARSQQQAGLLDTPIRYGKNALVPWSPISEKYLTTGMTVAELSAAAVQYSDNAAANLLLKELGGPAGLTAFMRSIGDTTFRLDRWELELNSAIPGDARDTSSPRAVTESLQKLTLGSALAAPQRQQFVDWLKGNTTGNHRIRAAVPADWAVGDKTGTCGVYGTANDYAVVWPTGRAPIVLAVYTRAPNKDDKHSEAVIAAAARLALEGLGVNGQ
In short: as §2

[10] = molecular target: T5, SHV-5 β-lactamase (Class A ESBL) (Klebsiella pneumoniae, UniProt P0A3M1); assay: β-Lactamase inhibition, SHV-5; format: biochemical
T5 construct: made in house; host or cells: E. coli BL21(DE3)
T5 sequence (P0A3M1 22-286): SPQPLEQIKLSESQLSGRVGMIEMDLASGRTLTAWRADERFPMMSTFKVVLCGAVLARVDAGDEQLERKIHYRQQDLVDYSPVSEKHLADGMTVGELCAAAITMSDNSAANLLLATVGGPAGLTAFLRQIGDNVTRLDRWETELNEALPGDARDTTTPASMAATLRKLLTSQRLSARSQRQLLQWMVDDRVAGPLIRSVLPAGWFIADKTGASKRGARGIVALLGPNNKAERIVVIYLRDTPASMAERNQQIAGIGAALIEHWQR
In short: as §2

[11] = test system: E. cloacae 144200 expressing Class C P99 AmpC; assay: Broth microdilution MIC, E. cloacae 144200 p99 AmpC; format: cell-based; settings: fixed 4 μg/mL ceftazidime; CAMHB, 16-20 hours at 37° C.
In short: as §1

Structure (SMILES)	MIC of example compound in presence of fixed β-lactam: Fixed Mero, K. P. 156319 KPC-3 [1]	IC50 [2] [nM]	MIC of example compound in presence of fixed β-lactam: Fixed CAZ, E. coli ESBL4 CTX-M-15 [3]	MIC of example compound in presence of fixed β-lactam: Fixed Pip, S. aureus MSSA-7 PC-1 [4]	MIC of example compound in presence of fixed β-lactam: Fixed Mero, P. aerug. Ps296 VIM-2 [5]	MIC of example compound in presence of fixed β-lactam: Fixed Mero, K. P. A-1797 KPC-2 VIM-4 [6]	IC50 [7] [nM]	IC50 [8] [nM]	IC50 [9] [nM]	IC50 [10] [nM]	MIC of example compound in presence of fixed β-lactam: Fixed CAZ, E. cl. 144200 p99 AmpC [11]
CNC1CCN(CC(=O)N[C@H]2Cc3cccc(C(=O)O)c3OB2O)CC1 [Example 14, 2-Hydroxy-3-[2-(4-methylamino-piperidin-1-yl)-acetylamino]-3,4-dihydro-2H-benzo[e][1,2]oxaborinine-8-carboxylic acid]	C (the MIC in the presence of <4 μg/mL of a β-lactamase inhibitor)	1000 to 10000	C (the MIC in the presence of <4 μg/mL of a β-lactamase inhibitor)	C (the MIC in the presence of <4 μg/mL of a β-lactamase inhibitor)	B (the MIC in the presence of between 8 and 32 μg/mL of a β-lactamase inhibitor)	B (the MIC in the presence of between 8 and 32 μg/mL of a β-lactamase inhibitor)	< 100	100 to 1000	100 to 1000	100 to 1000	C (the MIC in the presence of <4 μg/mL of a β-lactamase inhibitor)
NCCN1CCC(CCC(=O)N[C@H]2Cc3cccc(C(=O)O)c3OB2O)CC1 [Example 31, 3-{3-[1-(2-Amino-ethyl)-piperidin-4-yl]-propionylamino}-2-hydroxy-3,4-dihydro-2H-benzo[e][1,2]oxaborinine-8-carboxylic acid]	C (the MIC in the presence of <4 μg/mL of a β-lactamase inhibitor)	1000 to 10000	C (the MIC in the presence of <4 μg/mL of a β-lactamase inhibitor)	C (the MIC in the presence of <4 μg/mL of a β-lactamase inhibitor)	C (the MIC in the presence of <4 μg/mL of a β-lactamase inhibitor)	B (the MIC in the presence of between 8 and 32 μg/mL of a β-lactamase inhibitor)	< 100	< 100	< 100	100 to 1000	C (the MIC in the presence of <4 μg/mL of a β-lactamase inhibitor)
N#CCN1CCC(CC(=O)N[C@H]2Cc3cccc(C(=O)O)c3OB2O)CC1 [Example 35, 3-[2-(1-Cyanomethyl-piperidin-4-yl)-acetylamino]-2-hydroxy-3,4-dihydro-2H-benzo[e][1,2]oxaborinine-8-carboxylic acid]	B (the MIC in the presence of between 8 and 32 μg/mL of a β-lactamase inhibitor)	10000 to 100000	C (the MIC in the presence of <4 μg/mL of a β-lactamase inhibitor)	C (the MIC in the presence of <4 μg/mL of a β-lactamase inhibitor)	A (an MIC of the fixed β-lactam antibiotic in the presence of >32 μg/mL of a β-lactamase inhibitor)	B (the MIC in the presence of between 8 and 32 μg/mL of a β-lactamase inhibitor)	100 to 1000	100 to 1000	100 to 1000	100 to 1000	C (the MIC in the presence of <4 μg/mL of a β-lactamase inhibitor)
CN(C)c1ccc(NC(=O)N2CC(C(=O)N[C@H]3Cc4cccc(C(=O)O)c4OB3O)C2)cc1 [Example 47, (R)-3-(1-(4-(dimethylamino)phenylcarbamoyl)azetidine-3-carboxamido)-2-hydroxy-3,4-dihydro-2H-benzo[e][1,2]oxaborinine-8-carboxylic acid]	C (the MIC in the presence of <4 μg/mL of a β-lactamase inhibitor)	100 to 1000	C (the MIC in the presence of <4 μg/mL of a β-lactamase inhibitor)	B (the MIC in the presence of between 8 and 32 μg/mL of a β-lactamase inhibitor)	C (the MIC in the presence of <4 μg/mL of a β-lactamase inhibitor)	B (the MIC in the presence of between 8 and 32 μg/mL of a β-lactamase inhibitor)	< 100	100 to 1000	< 100	< 100	C (the MIC in the presence of <4 μg/mL of a β-lactamase inhibitor)
NCCN1CCC(NCC(=O)N[C@H]2Cc3cccc(C(=O)O)c3OB2O)CC1 [Example 52, 3-{2-[1-(2-Amino-ethyl)-piperidin-4-ylamino]-acetylamino}-2-hydroxy-3,4-dihydro-2H-benzo[e][1,2]oxaborinine-8-carboxylic acid]	C (the MIC in the presence of <4 μg/mL of a β-lactamase inhibitor)	1000 to 10000	C (the MIC in the presence of <4 μg/mL of a β-lactamase inhibitor)	C (the MIC in the presence of <4 μg/mL of a β-lactamase inhibitor)	B (the MIC in the presence of between 8 and 32 μg/mL of a β-lactamase inhibitor)	B (the MIC in the presence of between 8 and 32 μg/mL of a β-lactamase inhibitor)	< 100	< 100	< 100	< 100	C (the MIC in the presence of <4 μg/mL of a β-lactamase inhibitor)
N=C(N)NCC1CCCN(CC(=O)N[C@H]2Cc3cccc(C(=O)O)c3OB2O)C1 (stereo partly drawn) [Example 37, 3-[2-(3-Guanidinomethyl-piperidin-1-yl)-acetylamino]-2-hydroxy-3,4-dihydro-2H-benzo[e][1,2]oxaborinine-8-carboxylic acid]	C (the MIC in the presence of <4 μg/mL of a β-lactamase inhibitor)	100 to 1000	C (the MIC in the presence of <4 μg/mL of a β-lactamase inhibitor)	C (the MIC in the presence of <4 μg/mL of a β-lactamase inhibitor)	A (an MIC of the fixed β-lactam antibiotic in the presence of >32 μg/mL of a β-lactamase inhibitor)	B (the MIC in the presence of between 8 and 32 μg/mL of a β-lactamase inhibitor)	< 100	100 to 1000	100 to 1000	100 to 1000	C (the MIC in the presence of <4 μg/mL of a β-lactamase inhibitor)
